Assay results published in patent publication US8871756B2 (Hoffmann-La Roche Inc., priority 2011, dated 2014).

Tests used:
RSV Long strain = assay: Viral cytopathic effect (CPE) assay, anti-RSV activity; type: cell-based, Respiratory Syncytial Virus; conditions: human respiratory syncytial virus, 144 h, RSV Long strain (ATCC); cell viability after 6 days, Cell Counting kit-8
Method in brief: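 Cells (6×10^3/well, DMEM with 10% FBS) were infected next day with RSV Long strain, at a dose giving approximately 80–90% CPE, alongside serial half-log compound dilutions. Viability was read after 6 days by CCK-8 absorbance at 450 nm (reference 630 nm), and EC50 was derived from it.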

RSV = conditions: Phase III clinical trials; cited from earlier work
[1] = test system: established RSV infection; conditions: in vivo; cited from earlier work
RSV infection = conditions: selected infants; intramuscularly at 15 mg/kg once a month for the duration of RSV season; cited from earlier work

Row | Compound | EC50 (RSV Long strain) [µM] | other results
1 | NCCNc1cc(N2CCOc3ccccc3C2)nc2ccccc12 [Example 134, N-[2-(2,3-Dihydro-1,4-benzoxazepin-4(5H)-yl)quinolin-4-yl]ethane-1,2-diamine] | 0.25 | –
2 | motavizumab | – | benefit over palivizumab (RSV): failed to show additional benefit over palivizumab
3 | palivizumab | – | efficacy in the treatment of established RSV infection [1]: not effective; reduction of hospitalization rate caused by RSV infection (RSV infection): 45-55%

Now from value to compound, other results behind:

Row | EC50 (RSV Long strain) [µM] | Compound | other results
4 | 0.186 | Cc1ccc2nc(N3CCNc4ccccc4C3)cc(NCCN)c2c1 [Example 133-2, N-[6-Methyl-2-(1,2,3,5-tetrahydro-4H-1,4-benzodiazepin-4-yl)quinolin-4-yl]ethane-1,2-diamine] | –
5 | 0.006 | Cc1ccc2nc(N3CCS(=O)(=O)c4ccccc4C3)nc(NCC3(N)CC3)c2c1 [Example 135-1, N-[(1-Aminocyclopropyl)methyl]-2-(1,1-dioxido-2,3-dihydro-1,4-benzothiazepin-4(5H)-yl)-6-methylquinazolin-4-amine] | –
6 | 0.018 | Cc1ccc2nc(N3CCS(=O)(=O)c4ccccc4C3)nc(NC3CCNC3)c2c1 (stereo not shown) [Example 135-2, 2-(1,1-Dioxido-2,3-dihydro-1,4-benzothiazepin-4(5H)-yl)-6-methyl-N-(pyrrolidin-3-yl)quinazolin-4-amine] | –
